Test results: patent US20120070421A1 (priority 2009, published 2012)
Where two headings read alike, the source gives them in different places.

What was measured:
Plasmopara viticola = test: Green house: fungicidal control of grape downy mildew, protective spray on grape cuttings; type: in vivo; settings: single active, grape plants, sprayed 1 day before inoculation
Description: The stock solution were prepared: a mixture of acetone and/or dimethylsulfoxide and the wetting agent/emulsifier Wettol, which is based on ethoxylated alkylphenoles, in a relation (volume) solvent-emulsifier of 99 to 1 was added to 25 mg of the compound to give a total of 10 ml. Water was then added to total volume of 100 ml. This stock solution was diluted with the described solvent-emulsifier-water mixture to the given concentration.
The visually determined percentages of infected leaf areas are converted into efficacies in % of the untreated control.
The efficacy (E) is calculated as follows using Abbot's formula: […]
α corresponds to the fungicidal infection of the treated plants in % and β corresponds to the fungicidal infection of the untreated (control) plants in %
An efficacy of 0 means that the infection level of the treated plants corresponds to that of the untreated control plants; an efficacy of 100 means that the treated plants were not infected.
The expected efficacies of active compound combinations were determined using Colby's formula (Colby, S. R. “Calculating synergistic and antagonistic responses of herbicide combinations”, Weeds, 15, pp. 20-22, 1967) and compared with the observed efficacies.
Colby's formula: E=x+y−x·y/100
E expected efficacy, expressed in % of the untreated control, when using the mixture of the active compounds A and B at the concentrations a and b x efficacy, expressed in % of the untreated control, when using the active compound A at the concentration a y efficacy, expressed in % of the untreated control, when using the active compound B at the concentration b.
Grape cuttings were grown in pots to the 4 to 5 leaf stage. These plants were sprayed to run-off with an aqueous suspension, containing the concentration of active ingredient or their mixture mentioned in the table below. The plants were allowed to air-dry. […] Then the extent of fungal attack on the lower leaf surface was visually assessed as % diseased leaf area.

Phytophthora infestans = type: cell-based; settings: 0.00025 ppm, single active, 7 days after inoculation
Pyricularia oryzae = type: cell-based; settings: single active, 7 days after inoculation

## Cn1cc(C(=O)Nc2ccccc2-c2cc(F)c(F)c(F)c2)c(C(F)F)n1
Plasmopara viticola; 0.016 ppm
  Observed efficacy: 0%

## Cc1cc(C(F)(F)F)nn1CC(=O)N1CCC(c2nc(C(=O)N(C)[C@@H]3CCCc4ccccc43)cs2)CC1 [2-{1-[2-(5-methyl-3-trifluoromethyl-pyrazol-1-yl)-acetyl]-piperid-4-yl}-thiazole-4-carboxylic acid methyl-(R)-1,2,3,4-tetrahydro-naphthalen-1-yl-amide]
Plasmopara viticola; 0.063 ppm
  Observed efficacy: 67%
Phytophthora infestans
  Observed efficacy: 0%
Pyricularia oryzae; 0.063 ppm
  Observed efficacy: 1%
Pyricularia oryzae; 63 ppm
  Observed efficacy: 28%

## CCCCCCCCc1c(CC)nc2ncnn2c1N [drawing 4]
Plasmopara viticola; 0.016 ppm
  Observed efficacy: 11%

## CCCCCCCCc1c(CC)nc2ncnn2c1N [drawing 13, reference compound]
Pyricularia oryzae; 4 ppm
  Observed efficacy: 10%
